Laboratory results reported in US20250025443A1, “COMPOUNDS AND METHODS FOR TREATING CORONA VIRUSES” (CLEAR CREEK BIO, INC., priority 2021, published 2025).

Target: SARS-CoV-2 Papain-Like Protease (PLpro) (Severe acute respiratory syndrome coronavirus 2 (2019-nCoV) (SARS-CoV-2), UniProt P0DTD1)
Assay: biochemical
Conditions: PLpro enzymatic fluorescence assay; class symbols; read-out: PLpro IC50

Q: With Cc1ccc(OC[C@@H]2CCN2C)cc1C(=O)NC1(c2cc(-c3ncccn3)cc3ncccc23)CC1 [Compound 681, (S)-2-Methyl-5-((1-methylazetidin-2-yl)methoxy)-N-(1-(7-(pyrimidin-2-yl)quinolin-5-yl)cyclopropyl)benzamide] as the compound, how does the IC50 read?
A: < 100 nM

Q: With Cc1ccc(OC[C@@H]2CCN2)cc1C(=O)NC1(c2cc(-c3ncccn3)cc3ncccc23)CC1 [Compound 682, (S)-5-(Azetidin-2-ylmethoxy)-2-methyl-N-(1-(7-(pyrimidin-2-yl)quinolin-5-yl)cyclopropyl)benzamide] as the compound, how does the IC50 read?
A: < 100 nM

Q: How did the IC50 turn out when Cc1ccc(OC[C@@H]2CCN2C)cc1C(=O)NC1(c2cc(N3CCCC3)cc3ncccc23)CC1 [Compound 683, (S)-2-Methyl-5-((1-methylazetidin-2-yl)methoxy)-N-(1-(7-(pyrrolidin-1-yl)quinolin-5-yl)cyclopropyl)benzamide] was run?
A: < 100 nM

Q: Cc1ccc(OC[C@@H]2CCN2C)cc1C(=O)NC1(c2cc(/C=C/C3CC3)cc3ncccc23)CC1 [Compound 684, (S,E)-N-(1-(7-(2-Cyclopropylvinyl)quinolin-5-yl)cyclopropyl)-2-methyl-5-((1-methylazetidin-2-yl)methoxy)benzamide] was tested. Which IC50 did it give?
A: < 100 nM

Q: With Cc1ccc(OC[C@@H]2CCN2)cc1C(=O)NC1(c2cc(-c3ccc4ncnn4c3)cc3ncccc23)CC1 [Compound 685, (S)-N-(1-(7-([1,2,4]Triazolo[1,5-a]pyridin-6-yl)quinolin-5-yl)cyclopropyl)-5-(azetidin-2-ylmethoxy)-2-methylbenzamide] as the compound, how does the IC50 read?
A: < 100 nM

Q: With Cc1ccc(OC[C@@H]2CCN2)cc1C(=O)NC1(c2cc(-c3ccc4nccn4c3)cc3ncccc23)CC1 [Compound 686, (S)-5-(Azetidin-2-ylmethoxy)-N-(1-(7-(imidazo[1,2-a]pyridin-6-yl)quinolin-5-yl)cyclopropyl)-2-methylbenzamide] as the compound, how does the IC50 read?
A: < 100 nM

Q: How did the IC50 turn out when Cc1ccc(OC[C@@H]2CCN2C)cc1C(=O)NC1(c2cc(-c3ccc(F)c(Cl)c3)cc3ncccc23)CC1 [Compound 687, (S)—N-(1-(7-(3-Chloro-4-fluorophenyl)quinolin-5-yl)cyclopropyl)-2-methyl-5-((1-methylazetidin-2-yl)methoxy)benzamide] was run?
A: < 100 nM

Q: How did the IC50 turn out when Cc1ccc(OC[C@@H]2CCN2)cc1C(=O)NC1(c2cc(-c3cnc(N4CCCCC4)nc3)cc3ncccc23)CC1 [Compound 688, (S)-5-(Azetidin-2-ylmethoxy)-2-methyl-N-(1-(7-(2-(piperidin-1-yl)pyrimidin-5-yl)quinolin-5-yl)cyclopropyl)benzamide] was run?
A: < 100 nM

Q: For Cc1ccc(OC[C@@H]2CCN2)cc1C(=O)NC1(c2cc(-c3cncc(N4CCOCC4)c3)cc3ncccc23)CC1 [Compound 689, (S)-5-(Azetidin-2-ylmethoxy)-2-methyl-N-(1-(7-(5-morpholinopyridin-3-yl)quinolin-5-yl)cyclopropyl)benzamide], which IC50 is on record?
A: < 100 nM

Q: For Cc1cccc(/C=C/c2cc(C3(NC(=O)c4cc(OC[C@@H]5CCN5C)ccc4C)CC3)c3cccnc3c2)c1 [Compound 690, (S,E)-2-Methyl-5-((1-methylazetidin-2-yl)methoxy)-N-(1-(7-(3-methylstyryl)quinolin-5-yl)cyclopropyl)benzamide], which IC50 is on record?
A: < 100 nM

Q: With Cc1nnc(-c2cc(C3(NC(=O)c4cc(OC[C@@H]5CCN5C)ccc4C)CC3)c3cccnc3c2)s1 [Compound 691, (S)-2-Methyl-N-(1-(7-(5-methyl-1,3,4-thiadiazol-2-yl)quinolin-5-yl)cyclopropyl)-5-((1-methylazetidin-2-yl)methoxy)benzamide] as the compound, how does the IC50 read?
A: < 100 nM

Q: How did the IC50 turn out when Cc1nnc(-c2cc(C3(NC(=O)c4cc(OC[C@@H]5CCN5C)ccc4C)CC3)c3cccnc3c2)o1 [Compound 693, (S)-2-Methyl-N-(1-(7-(5-methyl-1,3,4-oxadiazol-2-yl)quinolin-5-yl)cyclopropyl)-5-((1-methylazetidin-2-yl)methoxy)benzamide] was run?
A: < 100 nM

Q: With Cc1ccc(OC[C@@H]2CCN2)cc1C(=O)NC1(c2cc(-c3ncco3)cc3ncccc23)CC1 [Compound 694, (S)-5-(Azetidin-2-ylmethoxy)-2-methyl-N-(1-(7-(oxazol-2-yl)quinolin-5-yl)cyclopropyl)benzamide] as the compound, how does the IC50 read?
A: < 100 nM

Q: Which IC50 does the source give for Cc1ccc(OC[C@@H]2CCN2)cc1C(=O)NC1(c2cc(-c3cc4ccccc4s3)cc3ncccc23)CC1 [Compound 695, (S)-5-(Azetidin-2-ylmethoxy)-N-(1-(7-(benzo[b]thiophen-2-yl)quinolin-5-yl)cyclopropyl)-2-methylbenzamide] here?
A: < 100 nM

Q: Which IC50 does the source give for CC#Cc1cc(C2(NC(=O)c3cc(OC[C@@H]4CCN4)ccc3C)CC2)c2cccnc2c1 [Compound 696, (S)-5-(Azetidin-2-ylmethoxy)-2-methyl-N-(1-(7-(prop-1-yn-1-yl)quinolin-5-yl)cyclopropyl)benzamide] here?
A: < 100 nM

Q: How did the IC50 turn out when C#Cc1cc(C2(NC(=O)c3cc(OC[C@@H]4CCN4)ccc3C)CC2)c2cccnc2c1 [Compound 697, (S)-5-(Azetidin-2-ylmethoxy)-N-(1-(7-ethynylquinolin-5-yl)cyclopropyl)-2-methylbenzamide] was run?
A: < 100 nM

Q: Cc1ncc(-c2cc(C3(NC(=O)c4cc(OC[C@@H]5CCN5)ccc4C)CC3)c3cccnc3c2)o1 [Compound 698, (S)-5-(Azetidin-2-ylmethoxy)-2-methyl-N-(1-(7-(2-methyloxazol-5-yl)quinolin-5-yl)cyclopropyl)benzamide] was tested. Which IC50 did it give?
A: < 100 nM

Q: Which IC50 does the source give for Cc1ccc(OC[C@@H]2CCN2C)cc1C(=O)NC1(c2cc(-c3cncc(N4CCOCC4)c3)cc3ncccc23)CC1 [Compound 699, (S)-2-Methyl-5-((1-methylazetidin-2-yl)methoxy)-N-(1-(7-(5-morpholinopyridin-3-yl)quinolin-5-yl)cyclopropyl)benzamide] here?
A: < 100 nM

Q: How did the IC50 turn out when Cc1ccc(OC[C@@H]2CCN2C)cc1C(=O)NC1(c2cc(-c3ccc4ncnn4c3)cc3ncccc23)CC1 [Compound 700, (S)—N-(1-(7-([1,2,4]Triazolo[1,5-a]pyridin-6-yl)quinolin-5-yl)cyclopropyl)-2-methyl-5-((1-methylazetidin-2-yl)methoxy)benzamide] was run?
A: < 100 nM

Q: How did the IC50 turn out when Cc1ccc(OC[C@@H]2CCN2C)cc1C(=O)NC1(c2cc(-c3cnc(N4CCCCC4)nc3)cc3ncccc23)CC1 [Compound 701, (S)-2-Methyl-5-((1-methylazetidin-2-yl)methoxy)-N-(1-(7-(2-(piperidin-1-yl)pyrimidin-5-yl)quinolin-5-yl)cyclopropyl)benzamide] was run?
A: < 100 nM

Q: With Cc1ccc(OC[C@@H]2CCN2C)cc1C(=O)NC1(c2cc(-c3ccc4nccn4c3)cc3ncccc23)CC1 [Compound 702, (S)—N-(1-(7-(Imidazo[1,2-a]pyridin-6-yl)quinolin-5-yl)cyclopropyl)-2-methyl-5-((1-methylazetidin-2-yl)methoxy)benzamide] as the compound, how does the IC50 read?
A: < 100 nM

Q: For Cc1cccc(/C=C/c2cc(C3(NC(=O)c4cc(OC[C@@H]5CCN5)ccc4C)CC3)c3cccnc3c2)c1 [Compound 704, (S,E)-5-(Azetidin-2-ylmethoxy)-2-methyl-N-(1-(7-(3-methylstyryl)quinolin-5-yl)cyclopropyl)benzamide], which IC50 is on record?
A: < 100 nM

Q: Which IC50 does the source give for Cc1ccc(OC[C@@H]2CCN2)cc1C(=O)NC1(c2cc(-c3nc4ccccc4o3)cc3ncccc23)CC1 [Compound 711, (S)-5-(Azetidin-2-ylmethoxy)-N-(1-(7-(benzo[d]oxazol-2-yl)quinolin-5-yl)cyclopropyl)-2-methylbenzamide] here?
A: < 100 nM

Q: How did the IC50 turn out when Cc1ccc(OC[C@@H]2CCN2)cc1C(=O)NC1(c2cc(-c3cnoc3)cc3ncccc23)CC1 [Compound 714, (S)-5-(Azetidin-2-ylmethoxy)-N-(1-(7-(isoxazol-4-yl)quinolin-5-yl)cyclopropyl)-2-methylbenzamide] was run?
A: < 100 nM

Q: For C=C(C)c1cc(C2(NC(=O)c3cc(OC[C@@H]4CCCN4)ccc3C)CC2)c2cccnc2c1 [Compound 715, (S)-2-Methyl-N-(1-(7-(prop-1-en-2-yl)quinolin-5-yl)cyclopropyl)-5-(pyrrolidin-2-ylmethoxy)benzamide], which IC50 is on record?
A: < 100 nM

Q: With Cc1ncc(-c2cc(C3(NC(=O)c4cc(OC[C@@H]5CCN5C)ccc4C)CC3)c3cccnc3c2)o1 [Compound 716, (S)-2-Methyl-5-((1-methylazetidin-2-yl)methoxy)-N-(1-(7-(2-methyloxazol-5-yl)quinolin-5-yl)cyclopropyl)benzamide] as the compound, how does the IC50 read?
A: < 100 nM

Q: C=Cc1cc(C2(NC(=O)c3cc(OC[C@@H]4CCCN4C)ccc3C)CC2)c2cccnc2c1 [Compound 717, (S)-2-Methyl-5-((1-methylpyrrolidin-2-yl)methoxy)-N-(1-(7-vinylquinolin-5-yl)cyclopropyl)benzamide] was tested. Which IC50 did it give?
A: < 100 nM

Q: How did the IC50 turn out when Cc1ccc(OC[C@@H]2CCN2C)cc1C(=O)NC1(c2cc(-c3nc4ccccc4o3)cc3ncccc23)CC1 [Compound 718, (S)—N-(1-(7-(Benzo[d]oxazol-2-yl)quinolin-5-yl)cyclopropyl)-2-methyl-5-((1-methylazetidin-2-yl)methoxy)benzamide] was run?
A: < 100 nM

Q: For C=C(C)c1cc(C2(NC(=O)c3cc(OC[C@@H]4CCCN4C)ccc3C)CC2)c2cccnc2c1 [Compound 719, (S)-2-Methyl-5-((1-methylpyrrolidin-2-yl)methoxy)-N-(1-(7-(prop-1-en-2-yl)quinolin-5-yl)cyclopropyl)benzamide], which IC50 is on record?
A: < 100 nM

Q: With CC#Cc1cc(C2(NC(=O)c3cc(OC[C@@H]4CCN4C)ccc3C)CC2)c2cccnc2c1 [Compound 721, (S)-2-Methyl-5-((1-methylazetidin-2-yl)methoxy)-N-(1-(7-(prop-1-yn-1-yl)quinolin-5-yl)cyclopropyl)benzamide] as the compound, how does the IC50 read?
A: < 100 nM

Q: Cc1ccc(OC[C@@H]2CCN2)cc1C(=O)NC1(c2cc(N3CCC3)cc3ncccc23)CC1 [Compound 722, (S)—N-(1-(7-(Azetidin-1-yl)quinolin-5-yl)cyclopropyl)-5-(azetidin-2-ylmethoxy)-2-methylbenzamide] was tested. Which IC50 did it give?
A: < 100 nM

Same assay, conditions: SARS-CoV-2 PLpro enzymatic fluorescence assay; read-out: PLpro IC50

Q: How did the IC50 turn out when C=Cc1cc(C2(NC(=O)c3cc(OC[C@@H]4CCCN4)ccc3C)CC2)c2cccnc2c1 [Compound 713, (S)-2-Methyl-5-(pyrrolidin-2-ylmethoxy)-N-(1-(7-vinylquinolin-5-yl)cyclopropyl)benzamide] was run?
A: < 100 nM
